# Data reported in publication PMC8761493, “New insights into the phosphorylation of the threonine motif of the β1 integrin cytoplasmic domain” (Life Science Alliance, 2022).
# Assays:
# kindlin-2 [1] = molecular target: T1, kindlin-2 (Homo sapiens, UniProt Q96AC1); experiment: Microscale thermophoresis (MST) affinity measurement; type: binding; conditions: compared with β1-WT tails
# T1 sequence (Q96AC1 1-680): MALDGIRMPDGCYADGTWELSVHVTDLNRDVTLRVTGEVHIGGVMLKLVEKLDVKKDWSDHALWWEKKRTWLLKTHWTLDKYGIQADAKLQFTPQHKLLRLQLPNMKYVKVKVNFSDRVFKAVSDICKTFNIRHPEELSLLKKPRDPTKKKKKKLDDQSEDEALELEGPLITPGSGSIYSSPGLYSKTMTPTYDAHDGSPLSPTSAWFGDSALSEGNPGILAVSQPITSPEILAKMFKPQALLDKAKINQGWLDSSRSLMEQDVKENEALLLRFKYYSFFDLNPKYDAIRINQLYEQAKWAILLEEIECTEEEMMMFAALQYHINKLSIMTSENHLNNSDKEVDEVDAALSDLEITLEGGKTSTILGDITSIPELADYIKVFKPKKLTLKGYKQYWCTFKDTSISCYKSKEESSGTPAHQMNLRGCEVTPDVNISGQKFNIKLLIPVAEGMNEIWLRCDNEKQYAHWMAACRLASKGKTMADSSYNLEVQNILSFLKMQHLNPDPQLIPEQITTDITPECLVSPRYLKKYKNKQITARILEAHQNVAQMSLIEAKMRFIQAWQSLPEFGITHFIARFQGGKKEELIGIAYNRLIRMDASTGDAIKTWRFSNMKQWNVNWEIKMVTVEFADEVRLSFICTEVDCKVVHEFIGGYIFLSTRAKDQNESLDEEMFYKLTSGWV
# Description: All MST measurements were performed on a Monolith NT.115 red-blue (Nanotemper) using premium-coated capillaries to reduce non-specific interaction of the proteins with the glass surface. Both interaction partners (ligand and receptor) were transferred into MST buffer (20 mM Tris, pH 7.5, 200 mM sodium chloride, 1 mM tris(2-carboxyethyl)phosphine [TCEP], 0.05% Tween-20) to avoid artifacts derived from buffer mismatches. […] The measurements were carried out at 20% light emitting diode power and 20% and 40% MST power. Data were analyzed using the MO Affinity Analysis Software (Nanotemper).
# recombinant kindlin-2 = experiment: Streptavidin-bead peptide pull-down with recombinant protein; type: binding; conditions: N-terminally desthio biotinylated peptide on streptavidin beads; kindlin-2 2.5 nM; THD absent or present; 2 h at 4°C; Western blot
# Description: (§1) Before use, peptides were immobilized on 25 μl Dynabeads MyOne Streptavidin C1 (10 mg/ml; Invitrogen) in Mammalian Protein Extraction Reagent (Thermo Fisher Scientific) containing protease inhibitors (cOmplete; Roche) and phosphatase inhibitors (Phosphatase Inhibitor Cocktail 2 and 3; Sigma-Aldrich) for 3 h at 4°C. Cell lysates were prepared with MPER containing protease and phosphatase inhibitors and 0.5 mg of supernatant was incubated with the peptide-coated beads at 4°C under constant rotation. For pull-downs with recombinant proteins, synthetic β1 integrin tail peptides were immobilized on 25 μl Dynabeads MyOne Streptavidin C1 (10 mg/ml; Invitrogen) for 3 h at 4°C, incubated with 2% BSA in Mammalian Protein Extraction Reagent (Thermo Scientific Scientific) for 30 min at 4°C to block unspecific binding before adding kindlin-2 or THD (conc 2.5 and 8.5 nM, respectively) and further incubation on a rotator for 2 h at 4°C. After washing the beads three times with lysis buffer, the proteins bound to the beads were eluted using Laemmli buffer, separated on a 10% SDS–PAGE, and analyzed by Western blotting.
# endogenous SNX17 = experiment: Peptide pull-down from whole cell lysate, Western blot; type: binding; conditions: densitometry, compared with β1-WT, mean ± SD, n = 5, SD
# Description: as §1
# endogenous kindlin-2 = experiment: as above; type: binding; conditions: densitometry, compared with β1-WT, mean ± SD, n = 5, SD
# Description: as §1
# [2] = Mass spectrometry-based measurement of the peptide's phosphorylation state after incubation in whole cell lysates; type: in vitro ADME; conditions: whole cell lysate in MPER with protease and phosphatase inhibitors, 4°C; read-out mass spectrometry
# [3] = system: anti-β1-pTpT integrin antibody (Abcam); experiment: Integrin peptide ELISA (direct ELISA, immobilized tail peptides); type: binding; conditions: antibody dilution range 1:500 to 1:10,000 (Fig 1E)
# Description: (§2) The plates were blocked with 200 μl PBS containing 3% BSA for 1 h at room temperature and then washed thrice with 200 μl PBS. Different dilutions of the anti–β1-pTpT antibodies (Thermo Fisher Scientific and Abcam) in 100 μl PBS supplemented with 3% BSA were incubated for 2 h at room temperature. After washing thrice with 200 μl PBS, 100 μl of anti-rabbit-IgG HRP-conjugate was added (1:10,000 in PBS supplemented with 3% BS) and incubated for 1 h at room temperature. The plates were washed thrice with 200 μl PBS, developed with 100 μl of ABTS substrate solution (1-Step ABTS; Thermo Fisher Scientific) before measuring absorbance at λ = 405 nm in a SpectraMax ABS Plus plate reader (Molecular Devices).
# [4] = system: anti-β1-pTpT integrin antibody (Thermo Fisher Scientific); experiment: as above; type: binding; conditions: antibody dilution range 1:500 to 1:10,000 (Fig 1D)
# Description: as §2
# [5] = molecular target: β1-pTpT peptide, N-terminally desthiobiotinylated; experiment: pull-down; desthiobiotinylated β1-tail peptides on Dynabeads MyOne Streptavidin C1; 0.5 mg whole cell lysate in MPER with protease and phosphatase inhibitors, 4°C; Western blot and densitometry
# SNX17 = SNX17 (UniProt Q8BVL3); experiment: biotinylated peptide pull-down from cell lysate; conditions: reference: β1-WT tail peptide; sites T788,T789
# kindlin-2 [6] = molecular target: kindlin-2 (UniProt Q8CIB5); experiment: biotinylated peptide pull-down from cell lysate; conditions: reference: β1-WT tail peptide; sites T788,T789
# kindlin-2 [7] = molecular target: kindlin-2 (UniProt Q8CIB5); experiment: microscale thermophoresis, Atto488-labeled peptides; conditions: reference: β1-WT tail peptide; sites T788,T789
# [8] = molecular target: talin-1 head domain (THD) head domain (UniProt P26039); experiment: as above; conditions: reference: β1-WT tail peptide; sites T788,T789
# kindlin-2 [9] = molecular target: kindlin-2 (UniProt Q8CIB5); experiment: streptavidin-bead peptide pull-down, Western blot; conditions: reference: β1-WT tail peptide; sites T788,T789
# [10] = molecular target: talin-1 head domain (THD) head domain (UniProt P26039); experiment: streptavidin-bead peptide pull-down, Western blot; conditions: reference: β1-WT tail peptide; sites T788,T789
compound,measurement,setting,value
CC[C@H](C)[C@H](NC(=O)[C@@H]1CCCN1C(=O)[C@H](CC(N)=O)NC(=O)[C@H](CCC(=O)O)NC(=O)CNC(=O)[C@@H](NC(=O)[C@H](CC(=O)O)NC(=O)[C@H](Cc1c[nH]c2ccccc12)NC(=O)[C@H](CCCCN)NC(=O)[C@H](C)NC(=O)[C@H](CC(N)=O)NC(=O)[C@H](CCSC)NC(=O)[C@H](CCCCN)NC(=O)[C@H](CCC(=O)O)NC(=O)[C@H](CCCCN)NC(=O)[C@H](CCC(=O)O)NC(=O)[C@H](Cc1ccccc1)NC(=O)[C@H](CCCCN)NC(=O)[C@H](C)NC(=O)[C@H](Cc1ccccc1)NC(=O)[C@H](CCC(=O)O)NC(=O)[C@H](CCCNC(=N)N)NC(=O)[C@H](CCCNC(=N)N)NC(=O)[C@H](CC(=O)O)NC(=O)[C@@H](N)Cc1c[nH]cn1)[C@@H](C)O)C(=O)N[C@@H](Cc1ccc(O)cc1)C(=O)N[C@@H](CCCCN)C(=O)N[C@@H](CO)C(=O)N[C@@H](C)C(=O)N[C@H](C(=O)N[C@H](C(=O)N[C@H](C(=O)N[C@H](C(=O)N[C@H](C(=O)N[C@@H](CC(N)=O)C(=O)N1CCC[C@H]1C(=O)N[C@@H](CCCCN)C(=O)N[C@@H](Cc1ccc(O)cc1)C(=O)N[C@@H](CCC(=O)O)C(=O)NCC(=O)N[C@@H](CCCCN)C(=O)O)C(C)C)C(C)C)[C@@H](C)OP(=O)(O)O)[C@@H](C)OP(=O)(O)O)C(C)C [β1-pTpT],affinity of kindlin-2 for the tail peptide (in words),kindlin-2 [1],not measurable anymore
same,pull-down of recombinant kindlin-2 (in words),recombinant kindlin-2,not
same,"SNX17 binding to the peptide, reduced to",endogenous SNX17,60 ± 11%
same,"kindlin-2 binding to the peptide, reduced to",endogenous kindlin-2,27 ± 11%
same,reduction of the peptide's phosphorylation after incubation in whole cell lysates,[2],around 40%
"LLQEKGGYIPSGPIpTpTIHENEVVKSPSQPG-OH [Wwc2-pTpT, unrelated peptide with a bi-phosphorylated double-threonine motif derived from the cytosolic scaffolding protein Wwc2]",binding of the anti-β1-pTpT antibody to the immobilized peptide (in words),[3],detected binding
same,binding of the anti-β1-pTpT antibody to the immobilized peptide (in words),[4],detected binding
endogenous kindlin-2 (from UniProt Q8CIB5 1-680) (natural protein),binding in percent of that to β1-WT (densitometry),[5],27%
"β1 integrin (cytoplasmic tail, β1-tail) cytoplasmic tail (from UniProt P09055) β1-pTpT tail peptide",percent of reference,SNX17,60%
same,percent of reference,kindlin-2 [6],27%
same,binding against the reference,kindlin-2 [7],lost
same,binding against the reference,[8],same
same,binding against the reference,kindlin-2 [9],lost
same,binding against the reference,[10],same
